Assay results from patent US20150073159A1, “Solid State Forms Of Cabazitaxel And Processes For Preparation Thereof” (PLUS CHEMICALS SA, priority 2011, published 2015).

Assays:
[1] = Hygroscopicity and stability test (exposure to controlled relative humidity; water content by Karl-Fischer, form by PXRD); type: physicochemical; settings: for % water content: Karl-Fischer coulometric titration; for Conversion to other forms of Cabazitaxel (in words) / Hygroscopicity (in words): normal atmospheric humidity, 60%, 80% and 100% RH
Experimental: (§1) Powder X-ray Diffraction was performed on an X-Ray powder diffractometer: PanAlytical X'pert Pro; CuKα radiation (λ=1.5418 Å); X'Celerator detector with active length 2.122 degrees 2-theta; laboratory temperature 22-25° C.; zero background sample holders. Prior to analysis, the samples were gently ground using a mortar and pestle to obtain a fine powder. The ground sample was adjusted into a cavity of the sample holder and the surface of the sample was smoothed using a cover glass.
A silicon powder internal standard was used to calibrate the peak positions and to eliminate an effect of the sample preparation. […] The internal standard powder can be mixed with a sample The PXRD diffractogram is then acquired and the current position of the aforementioned internal standard diffraction peak is determined. The difference between the current position of the diffraction and its nominal value of 28.44 degrees 2-theta is calculated. The current positions of all relevant sample peaks are then corrected using the above difference to obtain the true positions of the sample diffractions. The confidence interval for the peak positions was determined to be ±0.1 degrees 2-theta.
Scan range: 3-40 degrees 2-theta; Scan mode: continuous; Step size: 0.0167 degrees; Time per step: 42 s; Sample spin: 16 rpm; Sample holder: zero background silicon plate.
About 100 mg of a sample was placed to a cell with controlled relative humidity. The samples were exposed to 60%, 80% and 100% relative humidity, at a temperature of about room temperature, for a period of about two days. XRPD analysis and water content by Karl-Fischer coulometric titration were carried out before and after the exposure to the defined relative humidity.
Water was determined by KF Oven method (832 KF Thermoprep connected to 831 KF Coulometer). Water from the sample (50 mg of cabazitaxel) was released by nitrogen stream at 130° C. Extraction time was 10 minutes.

[2] = Polymorphic stability on storage (conversion measured by PXRD); type: physicochemical
Experimental: As used herein, and unless indicated otherwise, the term “polymorphic stability” in relation to the crystalline forms of Cabazitaxel means that there is less than 20%, 10%, 5%, 1%, 0.5% or 0.1% conversion of crystalline Cabazitaxel to any other solid state form of Cabazitaxel under the specified conditions, as measured by PXRD. In some embodiments, the conversion is 0.5%-20%, 0.5%-10% or 0.5%-5% or 0.5%-1% or 0.1%-1%, or 0.1%-0.5%.
as §1

[3] = 60% RH, about room temperature, about two days
[4] = 80% RH, about room temperature, about two days
[5] = 100% RH, about room temperature, about two days

Row | Form (crystalline structure determined by PXRD) [1, 3] | % water content [1, 3] | Form (crystalline structure determined by PXRD) [1, 4] | % water content [1, 4] | Form (crystalline structure determined by PXRD) [1, 5] | % water content [1, 5] | Form (crystalline structure determined by PXRD) ([1]; Atmospheric RH) | % water content ([1]; Atmospheric RH) | Hygroscopicity (in words) ([1]; about room temperature) | Period of polymorphic stability ([2]; about 25° C. and 60% relative humidity) | Period of polymorphic stability ([2]; about 40° C. and 75% RH) | SMILES | Conversion to other forms of Cabazitaxel (in words) ([1]; about room temperature)
1 | Form III | 0.14% | Form III | 0.23% | Form III | 0.19% | Form III | 0.05% | low-hygroscopicity form | at least 6 months | at least 6 months | CO[C@H]1C(=O)[C@]2(C)[C@@H](OC)C[C@H]3OC[C@@]3(OC(C)=O)[C@H]2[C@H](OC(=O)c2ccccc2)[C@]2(O)C[C@H](OC(=O)[C@H](O)[C@@H](NC(=O)OC(C)(C)C)c3ccccc3)C(C)=C1C2(C)C [Form III, Cabazitaxel] | does not convert to any other solid state forms of Cabazitaxel
2 | Form II | 0.07% | Form II | 0.09% | Form II | 0.11% | Form II | 0.02% | low-hygroscopicity form | – | – | CO[C@H]1C(=O)[C@]2(C)[C@@H](OC)C[C@H]3OC[C@@]3(OC(C)=O)[C@H]2[C@H](OC(=O)c2ccccc2)[C@]2(O)C[C@H](OC(=O)[C@H](O)[C@@H](NC(=O)OC(C)(C)C)c3ccccc3)C(C)=C1C2(C)C [Form II, Cabazitaxel] | does not convert to any other forms of Cabazitaxel

The next lines start with the molecule.

Row | SMILES | Form (crystalline structure determined by PXRD) [1, 3] | % water content [1, 3] | Form (crystalline structure determined by PXRD) [1, 4] | % water content [1, 4] | Form (crystalline structure determined by PXRD) [1, 5] | % water content [1, 5] | Form (crystalline structure determined by PXRD) ([1]; Atmospheric RH) | % water content ([1]; Atmospheric RH) | Hygroscopicity (in words) ([1]; about room temperature) | Period of polymorphic stability ([2]; about 25° C. and 60% relative humidity) | Period of polymorphic stability ([2]; about 40° C. and 75% RH) | Conversion to other forms of Cabazitaxel (in words) ([1]; about room temperature)
3 | CO[C@H]1C(=O)[C@]2(C)[C@@H](OC)C[C@H]3OC[C@@]3(OC(C)=O)[C@H]2[C@H](OC(=O)c2ccccc2)[C@]2(O)C[C@H](OC(=O)[C@H](O)[C@@H](NC(=O)OC(C)(C)C)c3ccccc3)C(C)=C1C2(C)C [Form V, Cabazitaxel] | Form V | 0.21% | Form V | 0.30% | Form V | 0.68% | Form V | 0.08% | low—hygroscopicity form | – | – | does not convert to any other forms of Cabazitaxel
4 | CO[C@H]1C(=O)[C@]2(C)[C@@H](OC)C[C@H]3OC[C@@]3(OC(C)=O)[C@H]2[C@H](OC(=O)c2ccccc2)[C@]2(O)C[C@H](OC(=O)[C@H](O)[C@@H](NC(=O)OC(C)(C)C)c3ccccc3)C(C)=C1C2(C)C [Form I, Cabazitaxel] | Form I | 0.13% | Form I | 0.14% | Form I | 0.14% | Form I | 0.05% | low-hygroscopicity form | – | – | does not convert to any other forms of Cabazitaxel
5 | CO[C@H]1C(=O)[C@]2(C)[C@@H](OC)C[C@H]3OC[C@@]3(OC(C)=O)[C@H]2[C@H](OC(=O)c2ccccc2)[C@]2(O)C[C@H](OC(=O)[C@H](O)[C@@H](NC(=O)OC(C)(C)C)c3ccccc3)C(C)=C1C2(C)C [Form IV, Cabazitaxel] | Form IV | 0.07% | Form IV | 0.09% | Form IV | 0.09% | Form IV | 0.01% | low-hygroscopicity form | – | – | does not convert to any other forms of Cabazitaxel
